Results from US11613750B2, “Methods of reducing virus molecule levels” (priority 2019, dated 2023).

How the values were obtained:
HBsAg = settings: HepG2.2.15 cells; for EC50: read-out: EC50, Extracell. HBsAg reduction
Description: (§1) Cell viability was assessed by ATP levels determined using the CellTiter-Glo reagent and the results normalized to the level in mock-treated cells. HBsAg levels were quantified using ELISA and the data normalized to the level in the mock-treated cells.
The cellular proteins GRP78/BIP, SRSF1, HNRNPA2B1, RPLP1, and RPLP2 were identified as having roles in HBV replication and infection. Various siRNAs and combinations thereof targeting the RNAs encoding these proteins were contacted with HepG2.2.15 cells at a final concentration of 7.5 nM.
The EC50 values of several siRNAs and combinations of siRNAs targeting HNRNPA2B1, GRP78, RPLP1, RPLP2, and/or SRSF1 were determined with respect to the ability to reduce HBsAg levels in HepG2.2.15 cells.
(§2) The ability of siRNAs targeting host factors that then results in the reduced production of multiple HBV molecules was evaluated by quantifying the amount of HBsAg, HBeAg, and Core protein produced by HepG2.2.15 cells after contacting with 10 nM of siRNAs that target HNRNPA2B1, GRP78, RPLP1, RPLP2, and SRSF1. We also contacted the cells with 5 nM of each set of siRNAs that targets both RPLP1 and RPLP2. The level of HBsAg, HBeAg, and Core were all determined using ELISAs.
(§3) The library of siRNAs of Example A5 were tested for the reduction of HBsAg secreted by HepG2.2.15 cells and in HBV virions.

HepG2.2.15 cells = test: HepG2.2.15 cell viability, CellTiter-Glo; settings: for CC50: read-out: CC50, HepG2.2.15 cell viability, highest concentration tested 80 nM
Description: as §1
The effects on cell viability were quantified using the CellTiter-Glo reagent. All data were normalized to the amount of protein produced by mock-treated cells.
as §3

HBeAg = settings: for HBeAg reduction HepG2.2.15 cells: 10 nM siRNA transfected into cells
Description: HBeAg in the cell culture media was assessed using ELISAs.
as §2, §3

RPLP2 mRNA = test: Target mRNA reduction by RT-qPCR in HepG2.2.15 cells; format: cell-based, human; settings: 10 nM siRNA
Excerpt: The siRNAs identified as described in Example A6 should function by a mechanism that includes being loaded in the RISC complex to cleave the cognate mRNA, leading to the degradation of the mRNA. To examine whether the siRNAs are effective in reducing the target mRNA, we used reverse transcription coupled with quantitative polymerase chain reaction (RT-qPCR) to assess the level of the target mRNA in HepG2.2.15 cells. All 32 siRNAs described in Table 2 reduced the mRNA by more than 75% (Table 3).

RPLP2 protein = test: Target protein reduction by Western blot in HepG2.2.15 cells; format: cell-based, human; settings: 10 nM siRNA, 72 h
Description: The host factors likely function in viral infection as proteins. Therefore, we determined whether the siRNAs could decrease the amounts of the target protein. Cell transfected with 10 nM of each siRNA for 72 h were lysed and the target proteins identified using Western blots probed with target-specific antibodies. The effective siRNAs described in Table 3 reduced the levels of the proteins by between 28 and 92% of the mock-treated samples. The reduction in the proteins is less than the reduction of the target mRNA, likely due to the proteins have prolonged half-life and that more time is needed for their degradation. […] We reason that this is due to RPLP1 and RPLP2 functioning as heterodimers such that a decrease of one protein increases the vulnerability of the other protein to degradation. Similar concomitant decrease of the proteins was reported by Campos et al. (17). Finally, the levels of two cellular proteins that are not targeted by the siRNAs, P54nrb and GAPDH, were unaffected.

HCoV-OC43 = test: OC43 virion RNA, Branched DNA assay, infected HCT8 cells; format: cell-based, human coronavirus OC43; settings: for OC43 vRNA reduction siRNA and siGRP78: 10 nM siRNA along with 10 nM of siRNA targeting GRP78, HCT8 cells; for OC43 vRNA reduction: 10 nM siRNA, HCT8 cells
Description: The siRNAs were transfected in the HCT8 cells at a final concentration of 10 nM. A positive control for the inhibition of Coronavirus infection, Remdesivir (Rem), was used at 0.9 μM. The virion RNAs (vRNAs) were quantified using a Branched DNA assay specific for OC43 RNA.
The two siRNAs are those referred to by compound number (see Table 2) in the horizontal bar, along with siRNA targeting GRP78, siGRP78. A positive control for the inhibition of Coronavirus infection, Remdesivir (Rem), was used at 0.9 μM. The vRNAs were quantified using a Branched DNA assay specific for OC43 RNA.
The siRNAs listed in Table 2 were transfected into human colon epithelial HCT8 cells and the amount of OC43 virion produced was quantified. In these assays, the OC43 vRNA was quantified using a Branched DNA assay (QuantiGene gene expression assay: ThermoFisher). As a positive inhibitory control, the infected cells were treated with Remdesivir. […] Examples of the inhibition of OC43 vRNA are illustrated in FIG. 5A.
A combination of siRNAs targeting the host factor should more robustly reduce OC43 virion production. To illustrate this, HCT8 cells were transfected with 10 nM of siRNAs from Table 2 along with 10 nM of siRNA targeting GRP78. The virion RNAs produced were quantified using the Branched DNA assay. […] A combination of siRNAs targeting host factors GRP78, SRSF1, RPLP1 and RPLP2 can lead to significant reduction in the production of human Coronavirus virion RNA from infected cells.

Substance | HBsAg level, dose response (HBsAg; FIG. 5A) | EC50 (HBsAg) [nM] | CC50 (HepG2.2.15 cells) [nM] | cytotoxicity / cell viability, siRNA library (HepG2.2.15 cells; up to the highest concentration tested, 80 nM) | HBeAg reduction HepG2.2.15 cells (HBeAg) [%] | HBeAg level, siRNA library (HBeAg; HepG2.2.15 cells, Example A6, FIG. 5A) | Target RNA reduction in HepG2.2.15 cells (RPLP2 mRNA) [%] | Target protein reduction in HepG2.2.15 cells (RPLP2 protein) [%] | OC43 vRNA reduction siRNA and siGRP78 (HCoV-OC43) [%] | OC43 vRNA reduction (HCoV-OC43) [%]
34 (GCUGAAUGGAAAAAACAUUGATTAAUGUUUUUUCCAUUCAGCUCTT; siRNA; Self-complementary hairpin strand, chemistry not given here, further chemistry not given here; listed as Homo sapiens) [compound 34] | dose-dependent reduction of HBV S-antigen (HBsAg) | 0.15 | > 80 | without affecting cell viability | 74 ± 4 | inhibited the levels of HBsAg and HBeAg | 93 ± 1 | 62.5 ± 3 | 86 ± 5 | 86 ± 3
35 (GGGAUUUGGCCUUUUUGAUUATTAUCAAAAAGGCCAAAUCCCAUTT; siRNA; Self-complementary hairpin strand, chemistry not given here, further chemistry not given here; listed as Homo sapiens) [compound 35] | – | 0.01 | > 80 | – | 69 ± 3 | – | 98 ± 0 | 78 ± 16 | 96 ± 1 | 94 ± 6
36 (CCUUUUUGAUUAAAUUCCUGCTTAGGAAUUUAAUCAAAAAGGCCTT; siRNA; Self-complementary hairpin strand, chemistry not given here, further chemistry not given here; listed as Homo sapiens) [compound 36] | – | 9.2 | > 80 | – | 26 ± 5 | – | 94 ± 1 | 57 ± 3 | 87 ± 6 | –
37 (CUGAAUGGAAAAAACAUUGAAUUUUCAAUGUUUUUUCCAUUCAGUU; siRNA; Self-complementary hairpin strand, chemistry not given here, further chemistry not given here; listed as Homo sapiens) [compound 37] | – | 0.049 | > 80 | – | 53 ± 3 | – | 98 ± 1 | 71 ± 10 | 88 ± 5 | 94 ± 2
38 (AGUGUACCUGCUGGUGGGGCUUUAGCCCCACCAGCAGGUACACUUU; siRNA; Self-complementary hairpin strand, chemistry not given here, further chemistry not given here; listed as Homo sapiens) [compound 38] | – | 0.076 | > 80 | – | – | – | 96 ± 1 | 55 ± 2 | 61 ± 14 | 39 ± 6
39 (AGAGGAGAAGAAAGAUGAGAAUUUUCUCAUCUUUCUUCUCCUCUUU; siRNA; Self-complementary hairpin strand, chemistry not given here, further chemistry not given here; listed as Homo sapiens) [compound 39] | – | 0.103 | > 80 | – | 59 ± 4 | – | 96 ± 1 | 48 ± 9 | 86 ± 6 | 91 ± 2
40 (AGUCUGAAGAGUCAGAUGAUGUUCAUCAUCUGACUCUUCAGACUUU; siRNA; Self-complementary hairpin strand, chemistry not given here, further chemistry not given here; listed as Homo sapiens) [compound 40] | – | 0.114 | > 80 | – | 56 ± 3 | – | 98 ± 1 | 54 ± 2 | 79 ± 15 | 89 ± 5
41 (AUGGGAUUUGGCCUUUUUGAUUUAUCAAAAAGGCCAAAUCCCAUUU; siRNA; Self-complementary hairpin strand, chemistry not given here, further chemistry not given here; listed as Homo sapiens) [compound 41] | – | 0.208 | > 80 | – | 40 ± 4 | – | 97 ± 1 | 58 ± 2 | 81 ± 7 | 89 ± 5
42 (CCCAGCGCCAAGGACAUCAAGUUCUUGAUGUCCUUGGCGCUGGGUU; siRNA; Self-complementary hairpin strand, chemistry not given here, further chemistry not given here; listed as Homo sapiens) [compound 42] | – | 0.385 | > 80 | – | 42 ± 2 | – | 95 ± 1 | 50 ± 4 | 85 ± 7 | 57 ± 5
43 (GUAUCGAGGCGGACGACGACCUUGGUCGUCGUCCGCCUCGAUACUU; siRNA; Self-complementary hairpin strand, chemistry not given here, further chemistry not given here; listed as Homo sapiens) [compound 43] | – | 0.182 | > 80 | – | 70 ± 5 | – | 94 ± 2 | 45 ± 4 | 92 ± 2 | 94 ± 1
44 (UGAGCUGAAUGGAAAAAACAUUUAUGUUUUUUCCAUUCAGCUCAUU; siRNA; Self-complementary hairpin strand, chemistry not given here, further chemistry not given here; listed as Homo sapiens) [compound 44] | – | 0.084 | > 80 | – | 30 ± 4 | – | 99 ± 1 | 59 ± 11 | 92 ± 2 | –
